ChEMBL document CHEMBL1201862, “PubChem BioAssay data set” (2004)
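Step 1: Grow cells in 96-well plates. Step 2: Expose to compound for 48 hours at 5 concentrations. Step 3: Interpolate endpoints linearly; if unreached, use highest concentration. GI50 = concentration required for 50% inhibition of growth.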 Activity calls are given as the source filed them. Cut-off read from the data, not from the text of the source: active = GI50 up to about 1.1 µM and inactive = higher.

What was measured:
Assay in all cases: inhibition of tumour cell growth, NCI panel, 48 h
A498 = test system: A498
A549 = test system: A549
COLO 205 = test system: COLO 205
HCC 2998 = test system: HCC 2998
HCT-116 = test system: HCT-116
Hs-578T = test system: Hs-578T
MDA-MB-231 = test system: MDA-MB-231
MOLT-4 = test system: MOLT-4
Malme-3M = test system: Malme-3M
NCI-H460 = test system: NCI-H460
NCI/ADR-RES = test system: NCI/ADR-RES
OVCAR-4 = test system: OVCAR-4
RPMI-8226 = test system: RPMI-8226
SF-268 = test system: SF-268
SK-MEL-28 = test system: SK-MEL-28
SK-OV-3 = test system: SK-OV-3
SNB-19 = test system: SNB-19
SNB-75 = test system: SNB-75
TK-10 = test system: TK-10
UACC-62 = test system: UACC-62

Measured: GI50

COc1cc2c(cc1OC)C(Cl)C(c1ccc(Br)cc1)=C2Cl (stereo unspecified)
inactive: A498 15.2 µM | A549 14.1 µM | COLO 205 14.4 µM | HCC 2998 13.3 µM | HCT-116 9.16 µM | Hs-578T 6.19 µM | MDA-MB-231 9.64 µM | MOLT-4 4.24 µM | Malme-3M 15 µM | NCI-H460 8.32 µM | NCI/ADR-RES 10.9 µM | OVCAR-4 13.8 µM | RPMI-8226 2.52 µM | SF-268 11.1 µM | SK-MEL-28 14.8 µM | SK-OV-3 16.1 µM | SNB-19 16.7 µM | SNB-75 13.3 µM | TK-10 11.4 µM | UACC-62 11.2 µM

N#CC1(C#N)C2(c3ccccc3)OC(c3ccccc3)(c3cc4ccccc4cc32)C1(C#N)C#N
inactive: A498 19.5 µM | A549 14.7 µM | COLO 205 6.17 µM | HCC 2998 18.5 µM | HCT-116 7.03 µM | Hs-578T 25.8 µM | MDA-MB-231 15.7 µM | MOLT-4 1.71 µM | Malme-3M 18.1 µM | NCI-H460 18 µM | NCI/ADR-RES 21 µM | OVCAR-4 11.4 µM | RPMI-8226 1.28 µM | SF-268 17 µM | SK-MEL-28 12.4 µM | SK-OV-3 21.1 µM | SNB-19 15.5 µM | SNB-75 13 µM | TK-10 16.2 µM | UACC-62 17.7 µM

Nc1ccccc1C(=O)CCc1c[nH]c2ccccc12
inactive: A498 > 100 µM | A549 > 100 µM | HCC 2998 > 100 µM | HCT-116 > 100 µM | Hs-578T 24.2 µM | MDA-MB-231 > 100 µM | MOLT-4 > 100 µM | Malme-3M > 100 µM | NCI-H460 > 100 µM | NCI/ADR-RES > 100 µM | OVCAR-4 20.3 µM | RPMI-8226 > 100 µM | SF-268 43.4 µM | SK-MEL-28 > 100 µM | SK-OV-3 27 µM | SNB-19 92.3 µM | SNB-75 29.4 µM | TK-10 > 100 µM | UACC-62 25.1 µM

C=C1c2cc3c(cc2CC12Cc1cc4c(cc1C2=O)CCC4)CCC3 (stereo unspecified)
inactive: A498 > 100 µM | A549 > 100 µM | HCC 2998 > 100 µM | HCT-116 > 100 µM | Hs-578T > 100 µM | MDA-MB-231 > 100 µM | MOLT-4 > 100 µM | Malme-3M > 100 µM | NCI-H460 > 100 µM | NCI/ADR-RES > 100 µM | OVCAR-4 > 100 µM | RPMI-8226 > 100 µM | SF-268 > 100 µM | SK-MEL-28 > 100 µM | SK-OV-3 > 100 µM | SNB-19 > 100 µM | SNB-75 > 100 µM | TK-10 > 100 µM

O=S(=O)([C-]([I+]c1ccccc1)S(=O)(=O)C(F)(F)C(F)(F)C(F)(F)C(F)(F)F)C(F)(F)C(F)(F)C(F)(F)C(F)(F)F
inactive: A498 14.8 µM | A549 18.7 µM | COLO 205 6.64 µM | HCC 2998 20 µM | Hs-578T 20.1 µM | MDA-MB-231 24.1 µM | MOLT-4 3.51 µM | Malme-3M 11 µM | NCI-H460 17.7 µM | NCI/ADR-RES 24.3 µM | OVCAR-4 2.95 µM | RPMI-8226 3.54 µM | SF-268 18.5 µM | SK-MEL-28 15.8 µM | SK-OV-3 16.7 µM | SNB-19 15.2 µM | SNB-75 14.8 µM | TK-10 16.3 µM | UACC-62 17.9 µM

O=C(Nc1sccc1S(=O)(=O)c1ccc(Cl)cc1)c1ccc(F)cc1F
inactive: A498 24.2 µM | A549 48.2 µM | COLO 205 > 100 µM | HCC 2998 > 100 µM | HCT-116 45.8 µM | Hs-578T 26.2 µM | MDA-MB-231 20.7 µM | MOLT-4 20.4 µM | Malme-3M 31.9 µM | NCI/ADR-RES 32.3 µM | OVCAR-4 21.2 µM | RPMI-8226 62.8 µM | SF-268 19.7 µM | SK-MEL-28 > 100 µM | SK-OV-3 21.9 µM | SNB-19 21.9 µM | SNB-75 19.3 µM | TK-10 20.9 µM | UACC-62 25.8 µM

O=C(CCCCCCCCC(=O)N1C(=O)CC(=O)N(c2ccccc2)C1=S)N1C(=O)CC(=O)N(c2ccccc2)C1=S
inactive: A498 > 100 µM | A549 > 100 µM | COLO 205 > 100 µM | HCC 2998 > 100 µM | HCT-116 > 100 µM | Hs-578T > 100 µM | MDA-MB-231 > 100 µM | MOLT-4 > 100 µM | Malme-3M > 100 µM | NCI-H460 > 100 µM | NCI/ADR-RES > 100 µM | OVCAR-4 > 100 µM | RPMI-8226 > 100 µM | SF-268 > 100 µM | SK-OV-3 > 100 µM | SNB-19 > 100 µM | SNB-75 > 100 µM | TK-10 > 100 µM | UACC-62 > 100 µM

CCO[C@]12CCC[C@H]1[C@@H]1C(=O)c3ccccc3C(=O)C1=C(C)O2
inactive: A498 76 µM | A549 > 100 µM | COLO 205 > 100 µM | HCC 2998 > 100 µM | Hs-578T > 100 µM | MDA-MB-231 > 100 µM | MOLT-4 33.6 µM | Malme-3M > 100 µM | NCI-H460 > 100 µM | NCI/ADR-RES > 100 µM | OVCAR-4 26.3 µM | RPMI-8226 29.2 µM | SF-268 30.8 µM | SK-MEL-28 > 100 µM | SK-OV-3 > 100 µM | SNB-19 > 100 µM | SNB-75 58.6 µM | TK-10 > 100 µM | UACC-62 > 100 µM

C=CCn1c(S)nnc1C12CC3CC(CC(C3)C1)C2
inactive: A498 > 100 µM | COLO 205 > 100 µM | HCC 2998 76.4 µM | HCT-116 46.1 µM | Hs-578T > 100 µM | MDA-MB-231 > 100 µM | MOLT-4 20.9 µM | Malme-3M > 100 µM | NCI-H460 53.5 µM | NCI/ADR-RES 55.1 µM | OVCAR-4 58.7 µM | RPMI-8226 36.7 µM | SF-268 > 100 µM | SK-MEL-28 > 100 µM | SK-OV-3 > 100 µM | SNB-19 > 100 µM | SNB-75 > 100 µM | TK-10 50.7 µM | UACC-62 90.8 µM

Cc1cc(Cl)ccc1OCC(=O)Oc1c(Cl)c(Cl)c(Cl)c(Cl)c1Cl
inactive: A498 25.6 µM | A549 25.6 µM | COLO 205 27.8 µM | HCC 2998 25.2 µM | HCT-116 20.8 µM | Hs-578T 22.6 µM | MDA-MB-231 18 µM | Malme-3M 19.2 µM | NCI-H460 22.6 µM | NCI/ADR-RES 25.4 µM | OVCAR-4 27.3 µM | RPMI-8226 21.9 µM | SF-268 30.5 µM | SK-MEL-28 27.7 µM | SK-OV-3 27.9 µM | SNB-19 26.4 µM | SNB-75 26.6 µM | TK-10 30.3 µM | UACC-62 19 µM
